Source: US20050239656A1, “Pyridine compounds or salts thereof and herbicides containing the same” (priority 2002, published 2005)

System: barnyardgrass
Assay: Test Example 2: soil surface treatment, upland pot test
Type: in vivo, Echinochloa crus-galli L.
Details: active ingredient 500 g/ha, observed 20th to 28th day
Outline: (§1)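 Upland soil in pots of 1/170,000 ha is sown; on day 1 after sowing the formulated compound (wettable powder or emulsifiable concentrate, predetermined a.i. amount, water volume 1,500 L/ha) is applied to the soil surface with a small sprayer. Percent control is judged by eye 20–28 days later.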

Row | SMILES | Growth controlling degree (%) Barnyardgrass [%]
1 | CC(C)C(c1cnccc1Cl)N(C)C(=O)Cc1ccccc1Cl (stereo not drawn) [Compound I-81] | 98
2 | CC(C)C(c1cnccc1C(F)(F)F)N(C)C(=O)Cc1cc(C(F)(F)F)ccc1F (stereo not drawn) [Compound I-96] | 60
3 | COc1ccc(OCC(=O)N(C)C(c2cnccc2C(F)(F)F)C(C)C)cc1 (stereo not drawn) [I-244] | 50

System: crabgrass
Assay: as above
Type: in vivo, Digitaria sanguinalis L.
Details: active ingredient 500 g/ha, observed 20th to 28th day
Outline: as §1

Row | SMILES | Growth controlling degree (%) Crabgrass [%]
4 | CC(C)C(c1cnccc1Cl)N(C)C(=O)Cc1ccccc1Cl (stereo not drawn) [Compound I-81] | 90
5 | CC(C)C(c1cnccc1C(F)(F)F)N(C)C(=O)Cc1cc(C(F)(F)F)ccc1F (stereo not drawn) [Compound I-96] | 85
6 | COc1ccc(OCC(=O)N(C)C(c2cnccc2C(F)(F)F)C(C)C)cc1 (stereo not drawn) [I-244] | 80

System: green foxtail
Assay: as above
Type: in vivo, Setaria viridis L.
Details: active ingredient 500 g/ha, observed 20th to 28th day
Outline: as §1

Row | SMILES | Growth controlling degree (%) Green foxtail [%]
7 | CC(C)C(c1cnccc1Cl)N(C)C(=O)Cc1ccccc1Cl (stereo not drawn) [Compound I-81] | 70
8 | CC(C)C(c1cnccc1C(F)(F)F)N(C)C(=O)Cc1cc(C(F)(F)F)ccc1F (stereo not drawn) [Compound I-96] | 100
9 | COc1ccc(OCC(=O)N(C)C(c2cnccc2C(F)(F)F)C(C)C)cc1 (stereo not drawn) [I-244] | 80

System: redroot pigweed
Assay: as above
Type: in vivo, Amaranthus retroflexus L.
Details: active ingredient 500 g/ha, observed 20th to 28th day
Outline: as §1

Row | SMILES | Growth controlling degree (%) Redroot pigweed [%]
10 | CC(C)C(c1cnccc1Cl)N(C)C(=O)Cc1ccccc1Cl (stereo not drawn) [Compound I-81] | 70
11 | CC(C)C(c1cnccc1C(F)(F)F)N(C)C(=O)Cc1cc(C(F)(F)F)ccc1F (stereo not drawn) [Compound I-96] | 80
12 | COc1ccc(OCC(=O)N(C)C(c2cnccc2C(F)(F)F)C(C)C)cc1 (stereo not drawn) [I-244] | 60

System: prickly sida
Assay: as above
Type: in vivo, Sida spinosa L.
Details: active ingredient 500 g/ha, observed 20th to 28th day
Outline: as §1

Row | SMILES | Growth controlling degree (%) Prickly sida [%]
13 | CC(C)C(c1cnccc1Cl)N(C)C(=O)Cc1ccccc1Cl (stereo not drawn) [Compound I-81] | 10
14 | CC(C)C(c1cnccc1C(F)(F)F)N(C)C(=O)Cc1cc(C(F)(F)F)ccc1F (stereo not drawn) [Compound I-96] | 70
15 | COc1ccc(OCC(=O)N(C)C(c2cnccc2C(F)(F)F)C(C)C)cc1 (stereo not drawn) [I-244] | 60

System: velvetleaf
Assay: as above
Type: in vivo, Abutilon theophrasti MEDIC.
Details: active ingredient 500 g/ha, observed 20th to 28th day
Outline: as §1

Row | SMILES | Growth controlling degree (%) Velvetleaf [%]
16 | CC(C)C(c1cnccc1Cl)N(C)C(=O)Cc1ccccc1Cl (stereo not drawn) [Compound I-81] | 0
17 | CC(C)C(c1cnccc1C(F)(F)F)N(C)C(=O)Cc1cc(C(F)(F)F)ccc1F (stereo not drawn) [Compound I-96] | 50
18 | COc1ccc(OCC(=O)N(C)C(c2cnccc2C(F)(F)F)C(C)C)cc1 (stereo not drawn) [I-244] | 0

System: rice
Assay: as above
Type: in vivo, Oryza sativa L.
Details: active ingredient 500 g/ha, observed 20th to 28th day
Outline: as §1

Row | SMILES | Growth controlling degree (%) Rice [%]
19 | CC(C)C(c1cnccc1Cl)N(C)C(=O)Cc1ccccc1Cl (stereo not drawn) [Compound I-81] | 0
20 | CC(C)C(c1cnccc1C(F)(F)F)N(C)C(=O)Cc1cc(C(F)(F)F)ccc1F (stereo not drawn) [Compound I-96] | 10
21 | COc1ccc(OCC(=O)N(C)C(c2cnccc2C(F)(F)F)C(C)C)cc1 (stereo not drawn) [I-244] | 20

System: corn
Assay: as above
Type: in vivo, Zea mays L.
Details: active ingredient 500 g/ha, observed 20th to 28th day
Outline: as §1

Row | SMILES | Growth controlling degree (%) Corn [%]
22 | CC(C)C(c1cnccc1Cl)N(C)C(=O)Cc1ccccc1Cl (stereo not drawn) [Compound I-81] | 0
23 | CC(C)C(c1cnccc1C(F)(F)F)N(C)C(=O)Cc1cc(C(F)(F)F)ccc1F (stereo not drawn) [Compound I-96] | 20
24 | COc1ccc(OCC(=O)N(C)C(c2cnccc2C(F)(F)F)C(C)C)cc1 (stereo not drawn) [I-244] | 30

System: soybean
Assay: as above
Type: in vivo, Glycine max Merr.
Details: active ingredient 500 g/ha, observed 20th to 28th day
Outline: as §1

Row | SMILES | Growth controlling degree (%) Soyabean [%]
25 | CC(C)C(c1cnccc1Cl)N(C)C(=O)Cc1ccccc1Cl (stereo not drawn) [Compound I-81] | 0
26 | CC(C)C(c1cnccc1C(F)(F)F)N(C)C(=O)Cc1cc(C(F)(F)F)ccc1F (stereo not drawn) [Compound I-96] | 20
27 | COc1ccc(OCC(=O)N(C)C(c2cnccc2C(F)(F)F)C(C)C)cc1 (stereo not drawn) [I-244] | 0

System: barnyardgrass
Assay: Test Example 3: paddy pot test, application under submerged conditions
Type: in vivo, Echinochloa crus-galli L.
Details: active ingredient 250 g/ha; submerged application at 0.5 leaf stage; visually observed 14 days after application; 0 = non-treated, 100 = complete kill
Outline: (§2)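 Visual growth-control rating (0 = untreated, 100 = complete kill) 14 days after treatment. The formulated compound, as a diluted wettable powder or emulsifiable concentrate, went into 3–4 cm flood water at a predetermined active-ingredient dose once the weeds reached 0.5 leaf stage (wapato: primary leaf stage).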

Row | SMILES | Growth controlling degree (%) Barnyardgrass [%]
28 | CC(C)C(c1cnccc1Cl)N(C)C(=O)Cc1ccccc1Cl (stereo not drawn) [Compound I-81] | 98
29 | CC(C)C(c1cnccc1C(F)(F)F)N(C)C(=O)Cc1cc(C(F)(F)F)ccc1F (stereo not drawn) [Compound I-96] | 100
30 | COc1ccc(OCC(=O)N(C)C(c2cnccc2C(F)(F)F)C(C)C)cc1 (stereo not drawn) [I-244] | 100

System: japanese bulrush
Assay: as above
Type: in vivo, Scirpus juncoides
Details: active ingredient 250 g/ha; submerged application at 0.5 leaf stage; visually observed 14 days after application; 0 = non-treated, 100 = complete kill
Outline: as §2

Row | SMILES | Growth controlling degree (%) Japanese bulrush [%]
31 | CC(C)C(c1cnccc1Cl)N(C)C(=O)Cc1ccccc1Cl (stereo not drawn) [Compound I-81] | 95
32 | CC(C)C(c1cnccc1C(F)(F)F)N(C)C(=O)Cc1cc(C(F)(F)F)ccc1F (stereo not drawn) [Compound I-96] | 100
33 | COc1ccc(OCC(=O)N(C)C(c2cnccc2C(F)(F)F)C(C)C)cc1 (stereo not drawn) [I-244] | 95

System: japanese ribbon wapato
Assay: as above
Type: in vivo, Sagittaria pygniaea
Details: active ingredient 250 g/ha; submerged application at primary leaf stage; visually observed 14 days after application; 0 = non-treated, 100 = complete kill
Outline: as §2

Row | SMILES | Growth controlling degree (%) Japanese ribbon wapato [%]
34 | CC(C)C(c1cnccc1Cl)N(C)C(=O)Cc1ccccc1Cl (stereo not drawn) [Compound I-81] | 0
35 | CC(C)C(c1cnccc1C(F)(F)F)N(C)C(=O)Cc1cc(C(F)(F)F)ccc1F (stereo not drawn) [Compound I-96] | 0
36 | COc1ccc(OCC(=O)N(C)C(c2cnccc2C(F)(F)F)C(C)C)cc1 (stereo not drawn) [I-244] | 50

System: rice (var. Nihonbare)
Assay: Test Example 3: paddy pot test, transplanted rice
Type: in vivo, Oryza sativa L.
Details: active ingredient 250 g/ha, applied 4th day after transplantation, visually observed 21st day after application, 0 = non-treated, 100 = complete kill
Outline: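 Rice (var. Nihonbare) at 2 leaf stage transplanted 3 cm deep into puddled paddy soil under 3–4 cm flooding; on day 4 after transplanting, diluted wettable powder or emulsifiable concentrate applied by pipette under submerged conditions at a set active-ingredient dose. Growth scored visually 21 days after application, 0 (untreated) to 100 (complete kill) %.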

Row | SMILES | Growth controlling degree (%) Rice [%]
37 | CC(C)C(c1cnccc1Cl)N(C)C(=O)Cc1ccccc1Cl (stereo not drawn) [Compound I-81] | 10
38 | CC(C)C(c1cnccc1C(F)(F)F)N(C)C(=O)Cc1cc(C(F)(F)F)ccc1F (stereo not drawn) [Compound I-96] | 30
39 | COc1ccc(OCC(=O)N(C)C(c2cnccc2C(F)(F)F)C(C)C)cc1 (stereo not drawn) [I-244] | 0
